Experiments:
[1] = system: MC38 murine colon carcinoma; assay: Example 1: tumor growth delay in MC38 syngeneic model, HBI-8000 at two doses alone and with PD-L1 inhibitor antibody; type: in vivo, C57BL/6 mice; details: for Median TTE: endpoint 1000 mm^3 or Day 47; for % TGD: versus vehicle
Description: In Example 1 HBI-8000 was tested in two doses as monotherapy and in two doses in combination with PD-L1 inhibitor antibody at 5 mg/kg. The experiment included a vehicle-treated group and a PD-L1 inhibitor antibody monotherapy group, which served as control groups for analysis of efficacy. Tumors were measured twice per week until the study was ended on Day 47. Each animal was euthanized when its tumor attained the endpoint tumor volume of 1000 mm^3 or on the final day of the study, whichever came first, and the time to endpoint (TTE) for each mouse was calculated. Treatment response was determined from an analysis of percent tumor growth delay (% TGD), defined as the percent increase in the median time to endpoint (TTE) for treated versus control mice; and by logrank significance of differences in survival among groups and regression responses.
Mice: Female C57BL/6 mice (Charles River Laboratories) were eight weeks old, with a body weight (BW) range of 15.4 to 22.0 grams on Day 1 of the study. The animals were fed ad libitum water (reverse osmosis, 1 ppm Cl), and NIH 31 Modified and Irradiated Lab Diet® consisting of 18.0% crude protein, 5.0% crude fat, and 5.0% crude fiber. The mice were housed on irradiated Enrich-o′cobs™ Laboratory Animal Bedding in static microisolators on a 12-hour light cycle at 20-22° C. (68-72° F.) and 40-60% humidity.
Tumor Cell Culture: MC38 murine colon carcinoma cells were maintained in Dulbecco's Modified Eagle Medium (DMEM) supplemented with 10% fetal bovine serum and 2 mM glutamine, 100 units/mL penicillin G sodium, 100 μg/mL streptomycin sulfate, and 25 μg/mL gentamicin. Cell cultures were maintained in tissue culture flasks in a humidified incubator at 37° C., in an atmosphere of 5% CO2 and 95% air.
Tumor Implantation: Cells were harvested during exponential growth, and resuspended in cold DMEM. Each mouse was inoculated subcutaneously in the right flank with 1×10^6 cells (0.1 mL of cell suspension). Tumors were calipered in two dimensions to monitor growth as their mean volume approached the desired 100-150 mm^3 range. Tumor burden was calculated using the formula:
[formula] • where w=width and l=length, in mm, of the tumor. Tumor weight may be estimated with the assumption that 1 mg is equivalent to 1 mm^3 of tumor volume. […]
Tumor Growth Delay: Tumors were measured using calipers twice per week, and each animal was euthanized when its tumor reached a volume of 1000 mm^3 or at the end of the study (D47), whichever came first. […] The time to endpoint (TTE) for analysis was calculated for each mouse by the following equation: […]

HDAC 2 = HDAC 2 (Homo sapiens, UniProt Q92769); details: cited from earlier work
HDAC 2, sequence (Q92769 whole entry): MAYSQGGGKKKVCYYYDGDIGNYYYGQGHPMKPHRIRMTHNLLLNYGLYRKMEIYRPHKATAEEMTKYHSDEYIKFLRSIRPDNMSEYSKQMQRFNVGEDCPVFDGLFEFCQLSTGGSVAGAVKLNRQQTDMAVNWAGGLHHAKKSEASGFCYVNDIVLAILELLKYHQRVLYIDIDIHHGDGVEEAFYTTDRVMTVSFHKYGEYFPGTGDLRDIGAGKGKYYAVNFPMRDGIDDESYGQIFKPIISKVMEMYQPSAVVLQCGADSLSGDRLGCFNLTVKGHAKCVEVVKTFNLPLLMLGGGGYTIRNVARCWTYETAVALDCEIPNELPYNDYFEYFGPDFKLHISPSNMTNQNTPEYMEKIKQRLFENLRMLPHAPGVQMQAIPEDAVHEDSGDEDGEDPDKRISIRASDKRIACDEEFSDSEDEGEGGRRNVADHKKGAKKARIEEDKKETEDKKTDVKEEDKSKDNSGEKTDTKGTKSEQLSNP

[2] = HBI-8000 20 mg/kg p.o. qd×21, alone or plus anti-PDL-1 5 mg/kg i.p. biwk×3
[3] = HBI-8000 50 mg/kg p.o. qd×21, alone or plus anti-PDL-1 5 mg/kg i.p. biwk×3

## Nc1cc(F)ccc1NC(=O)c1ccc(CNC(=O)/C=C/c2cccnc2)cc1 [HBI-8000, N-(2-amino-4-fluorophenyl)-4-[[[(2E)-1-oxo-3-(3-pyridinyl)-2-propen-1-yl]amino]methyl]benzamide]
[1]; [2]
  Median TTE: 18.9 days
  % TGD: −8%
[1]; [3]
  Median TTE: 22.8 days
  % TGD: 11%
HDAC 2
  inhibition of HDAC 2: low nanomolar concentrations
HDAC 2; versus Entinostat
  activity at HDAC 2 compared with Entinostat: more active than Entinostat

Reference: US11535670B2, “Combination therapies of HDAC inhibitors and PD-L1 inhibitors” (HUYABIO International, LLC, priority 2016, dated 2022)
